Reference: PubChem BioAssay AID2060882 (Molecular Pharmacology Branch, DTP, NCI, 2025)

Tested on: 898857-211-R-J1-PDC complex spheroids, growth % test/control
Test: Anticancer human tumor 898857-211-R-J1-PDC patient-derived melanoma cell line growth inhibition [RAS]
Details: for IC50: curve of first compound; for viability, T/C: stronger effect = lower value
Description: RAS pathway inhibitors in Combinations in Complex Spheroids
A high-throughput screen of multi-cell type tumor spheroids was designed to identify active combinations of RAS pathway inhibitors and targeted small molecules. Complex spheroids include a stromal component modeled by human endothelial cells (HUVEC) and fibroblasts modeled by human mesenchymal stem cells (MSCs). The concentration ranges selected for each drug and investigational agent were based upon clinically achievable concentrations if the clinical Cmax of the agent was known.
Compounds. The drugs and investigational agents: abemaciclib (NSC768073), cobimetinib (NSC768068), divarasib (GDC6063, NSC841802), docetaxel (NSC628503), GDC-1971 (RLY-1971, NSC841576), gemcitabine (NSC613327), inavolisib (NSC800729), ipatasertib (NSC767898), KB-0742 (NSC834161), MRTX-1133 (NSC836407), osimertinib (NSC779217), RMC-4630 (NSC839698), RMC-6236 (NSC851965), RMC-6291 (NSC852671), Ro-3306 (NSC812927), sapanisertib (NSC764658), SN-38 (NSC673596), staurosporine (NSC755774), SY5609 (NSC837396), and tovorafenib (DAY101, NSC766906), were obtained from the National Cancer Institute (NCI) Developmental Therapeutics Program Chemical Repository. The FDA-approved anticancer drug set is available from the NCI Developmental Therapeutics Program. […] The stock solutions were prepared in dimethyl sulfoxide (DMSO, Sigma-Aldrich, St. Louis, MO, cat. D2650) at 800-fold the tested concentration and stored at -70 degrees C prior to their use. All drugs and investigational agents were tested over a range starting from a high concentration at or near the clinical Cmax and decreasing in half-log increments. If the clinical Cmax for an agent had not been determined, the highest concentration tested was 10 microM.
Cell Culture. All cells were maintained in an incubator at 37 degrees C and 5% CO2 with 95% humidity. The PDC lines were cultured according to standard operating procedures established by the NCI PDMR. All PDCs were thawed and cultured in Matrigel-coated flasks prepared with a working solution of 1X Ham's F-12 nutrient mix, without supplementation (Invitrogen, Waltham, MA, cat. 11765054), 100 U/mL penicillin-streptomycin (Invitrogen, cat. 15140122), and 2.5% Matrigel (Corning Inc., Corning, NY, cat. 354248) for the first three passages. The 362531-283-R-J2-PDC and 782815-120-R-J1-PDC lines were cultured in 6C/Colon 1B media, which includes advanced DMEM/F-12 (Thermo Fisher Scientific, cat. 12634028), 10 mM HEPES (Thermo Fisher Scientific, cat. 15630080), 1X GlutaMAX supplement (Thermo Fisher Scientific, cat. 35050061), 0.1 mg/mL primocin (InvivoGen, San Diego, CA, cat. ant-pm-2), 10% defined fetal bovine serum, heat inactivated (HyClone Laboratories Inc., Logan, UT, cat. SH30070.03HI), 50% L-WRN conditioned media (ATCC, cat. CRL-3276), 1.25 mM N-Acetyl-L-cysteine (Sigma-Aldrich, cat. A9165), 10 mM nicotinamide (Sigma-Aldrich, cat. N0636), 1X B-27 supplement (Thermo Fisher Scientific, cat. 17504044), 1X N-2 supplement (Thermo Fisher Scientific, cat. 17502048), 50 ng/mL human EGF (Thermo Fisher Scientific, cat. PHG0311), and 10 microM Y-27632 dihydrochloride (Tocris Bioscience, cat. 1254). The K12877-001-R-J1-PDC line was cultured in 6I media, which includes all 6C/Colon 1B media plus 10 ng/mL human FGF-10 (PeproTech, cat. 100-26), 1 ng/mL human FGF-2 (PeproTech, cat. 100-18B), 1 µM prostaglandin E2 (Tocris Bioscience, cat. 2296), […] hydrocortisone (Sigma-Aldrich, cat. H4001), and […] bovine insulin (Sigma-Aldrich, cat. I6634). The K86415-001-R-J1-PDC line was cultured in 6D media, which includes all 6C/Colon 1B media components minus the L-WRN conditioned media. The 485176-168-R4-J1-PDC was cultured in PANC media, which includes all 6C/Colon 1B media plus 100 ng/mL human FGF-10 (PeproTech, cat. 100-26), 500 nM SB-431542 (Selleckchem, cat. S1067), and 10 nM gastrin (Tocris Bioscience, cat. 3006). […]
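Also: spheroids exposed to compound for seven days before readout.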
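For viability, T/C in this document: 100% = DMSO vehicle control wells.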

IC50 (second compound 0.00316 µM): > 10 µM
IC50 (second compound 0.01 µM): > 10 µM
IC50 (second compound 0.0316 µM): > 10 µM
IC50 (second compound 0.1 µM): > 10 µM
IC50 (second compound 0.316 µM): > 10 µM
IC50 (second compound 1 µM): > 10 µM
Compound: NC1c2ccccc2OC12CCN(c1cnc3c(N4CCCc5ncccc54)n[nH]c3n1)CC2 (configuration not stated) + C=CC(=O)N1CCN(c2nc(OCC3CCCN3C)nc3c(F)c(-c4nc(N)cc(C)c4C(F)(F)F)c(Cl)cc23)C(C)C1
viability, T/C (second compound 0.00316 µM, first compound 0.0316 µM): 92.5%
viability, T/C (second compound 0.00316 µM, first compound 0.1 µM): 98%
viability, T/C (second compound 0.00316 µM, first compound 0.316 µM): 92.8%
viability, T/C (second compound 0.00316 µM, first compound 1 µM): 89.2%
viability, T/C (second compound 0.00316 µM, first compound 3.16 µM): 79.9%
viability, T/C (second compound 0.00316 µM, first compound 10 µM): 75%
viability, T/C (second compound 0.01 µM, first compound 0.0316 µM): 94.9%
viability, T/C (second compound 0.01 µM, first compound 0.1 µM): 85.9%
viability, T/C (second compound 0.01 µM, first compound 0.316 µM): 87.2%
viability, T/C (second compound 0.01 µM, first compound 1 µM): 83.3%
viability, T/C (second compound 0.01 µM, first compound 3.16 µM): 81.6%
viability, T/C (second compound 0.01 µM, first compound 10 µM): 78.6%
viability, T/C (second compound 0.0316 µM, first compound 0.0316 µM): 88.3%
viability, T/C (second compound 0.0316 µM, first compound 0.1 µM): 85.8%
viability, T/C (second compound 0.0316 µM, first compound 0.316 µM): 88.2%
viability, T/C (second compound 0.0316 µM, first compound 1 µM): 86.2%
viability, T/C (second compound 0.0316 µM, first compound 3.16 µM): 87.3%
viability, T/C (second compound 0.0316 µM, first compound 10 µM): 71.8%
viability, T/C (second compound 0.1 µM, first compound 0.0316 µM): 98.6%
viability, T/C (second compound 0.1 µM, first compound 0.1 µM): 89.8%
viability, T/C (second compound 0.1 µM, first compound 0.316 µM): 97.3%
viability, T/C (second compound 0.1 µM, first compound 1 µM): 99.5%
viability, T/C (second compound 0.1 µM, first compound 3.16 µM): 103%
viability, T/C (second compound 0.1 µM, first compound 10 µM): 74.1%
viability, T/C (second compound 0.316 µM, first compound 0.0316 µM): 112%
viability, T/C (second compound 0.316 µM, first compound 0.1 µM): 103%
viability, T/C (second compound 0.316 µM, first compound 0.316 µM): 101%
viability, T/C (second compound 0.316 µM, first compound 1 µM): 107%
viability, T/C (second compound 0.316 µM, first compound 3.16 µM): 102%
viability, T/C (second compound 0.316 µM, first compound 10 µM): 76%
viability, T/C (second compound 1 µM, first compound 0.0316 µM): 116%
viability, T/C (second compound 1 µM, first compound 0.1 µM): 93.6%
viability, T/C (second compound 1 µM, first compound 0.316 µM): 108%
viability, T/C (second compound 1 µM, first compound 1 µM): 94.2%
viability, T/C (second compound 1 µM, first compound 3.16 µM): 87.3%
viability, T/C (second compound 1 µM, first compound 10 µM): 58%
